Data published in article PMC6237130, “Disarming the virulence arsenal of Pseudomonas aeruginosa by blocking two-component system signaling” (Chemical Science, 2018).
Entries after “also recorded” stand apart in the source; their conditions may differ.

Experiments:
HK853 [1] = molecular target: T1, HK853 (Thermotoga maritima, UniProt Q9WZV7); experiment: HK853 aggregation analysis (native-PAGE); settings: for Compound-induced HK853 aggregation: native-PAGE, Fig. S3
Description: HK853 Aggregation Analysis
To analyze the propensity for compounds to cause aggregation, each was mixed at six […]
(5% (v/v) DMSO final). After incubating at RT for 30 min, 8.6 µL native-PAGE sample loading buffer was added, and 15 µL was loaded onto a 7.5% polyacrylamide gel. Proteins were resolved by native-PAGE and silver staining. Compound-induced aggregation was detected by the disappearance of the dimeric HK853 band. NH125 (Tocris Bioscience) was used as a positive […]

P. aeruginosa PA14 [2] = experiment: Swarming assay; assay type: cell-based, Pseudomonas aeruginosa; settings: 200 μM; for Swarming motility: after 5 days
Description: (§1) Swarming assays and quantification of rhamnolipids in swarm-plates
(§2) We followed the revised protocol developed by Trembley et al. for P. aeruginosa swarm assays.6 Plates consisted of modified M9 medium [20 mM NH4Cl; 12 mM Na2HPO4; 22 mM KH2PO4; 8.6 mM NaCl; 1 mM MgSO4; 1 mM CaCl2•2H2O; 11 mM dextrose; 0.5% casamino acids (Difco)] solidified with Bacto-agar (Difco). The M9 media without MgSO4 and CaCl2•2H2O was autoclaved, which were added after cooling the media ~60 °C. The pH was adjusted after autoclaving with HCl and NaOH (pH = 7.5). Then, a 1-in-100 dilution of filter-sterile stock containing 1 mg/mL Nile red (Sigma Aldrich) dissolved in 85% ethylene glycol and added (prepared the day of use to limit photoinactivation).7 Twenty mL of this media was poured into […]
(for the control experiments, same amount of DMSO was added). Plates were allowed to dry for 60 min, with the first 20 min under UV light to ensure plates were sterile following pH adjustment. P. aeruginosa PA14 strain was grown overnight (~16 h) in LB media at 37 °C and 200 RPM. Five µl of bacteria were spotted at the center of each plate, which were incubated at 30 °C in the dark and ~20% humidity. The plates were intermittently taken out for fluorescence scanning [scan settings: GE Typhoon Variable Mode Imager 9500, using 532-nm laser with DY-520XL (λex: 520 nm, λem: 664 nm)]. The scans were visualized and integrated density measurements of whole-plate fluorescence was measured using ImageJ software. Images of these plates were also taken with a Nikon D5200 DSLR camera, which were processed in Adobe Photoshop Lightroom 5 (Mac version) for phase-contrast.
Figure S9. Swarming motility of PA14 in the presence of Rilu-inhibitors at 200 µM after 5 days.
(§3) The top images are fluorescence scans for detecting Nile Red and the bottom images were taken

P. aeruginosa PA14 [3] = experiment: Growth of PA14 cultures with inhibitors (OD620, CFU); assay type: cell-based, Pseudomonas aeruginosa; settings: for Bacteriostatic and bactericidal properties in PA14 cultures: OD620 measurements and CFU studies, even at high concentrations (500 μM); for t = 9 h, OD620 / t = 24 h, OD620: Table S3, PA14 cultures for metabolomics, 200 µM, 37 °C
Description: The overnight culture was diluted 1:100 in fresh LB media. 4 mL of this culture was then put
into a 15 mL borosilicate glass tube, to which Rilu-inhibitors in DMSO were added to a final
concentration of 200 µM and 500 µM (for the control experiments, the same amount of DMSO
was added). These cultures were grown for 24 h at 37 ° C and 200 RPM, and their OD620 values
were measured using a spectrophotometer at various time points.
200 µM and 500 µM after 16 h at 37 °C.

P. aeruginosa PA14 [4] = experiment: Biofilm assay (microtitre, crystal violet); assay type: cell-based, Pseudomonas aeruginosa; settings: high concentrations, PA14, 24 h, relative to DMSO control
Description: (§4) P. aeruginosa PA14 strain was grown overnight (~16 h) in LB media at 37 °C and 200 RPM.
The overnight culture was diluted 1:100 in fresh LB media. 200 µL of this culture was then used to inoculate each well of a microtiter plate, to which Rilu-inhibitors were added in DMSO to final concentration of 200 µM or 500 µM (for the control experiments, same amount of DMSO was added). Eight wells per plate were used for each sample. These cultures were grown for 24 h at 37 °C without shaking. After growth, the planktonic cultures were carefully removed to a new microtitre plate to measure the OD620 values. The adhered cells were washed carefully three times with sterile PBS buffer, and then the cells were fixed with MeOH for 20 min. After removing the MeOH, the wells were allowed to dry for 10 min, followed by addition of 0.1% crystal violet. After 15 min of incubation, the stain was carefully removed without touching the rest of the plate. The excess stain was washed away 3 times from the wells with distilled water and the plate was allowed to dry for ~1 h. Finally, the adhered stain was redissolved in 30% acetic acid solution (for 1 h) and absorbance was measured at 595 nm. Assays were repeated in […]
Figure S8. (a) Different stages of biofilm formation. (b) Biofilm formation assessment. All values are plotted relative to a DMSO-treated control and normalized to the final cell density (OD620). […]

Vero cells = system: Vero cells; design: method as in PMID 25531939; settings: at <180 μM; cited from earlier work
P. aeruginosa PA14 [5] = experiment: LC-MS/MS analyses of metabolites in PA14 culture supernatant; assay type: cell-based, Pseudomonas aeruginosa; settings: 200 μM, 9 h, 37 °C, relative to DMSO control
Description: LC-MS analyses of metabolites
The overnight culture was diluted 1:100 in fresh LB media. 4 mL of this culture was added into a 15 mL borosilicate glass tube, to which Rilu-inhibitors in DMSO were added to a final concentration of 200 µM (for the control experiments, same amount of DMSO was added).
These cultures were grown for 9 h (late exponential phase) or 24 h (stationary phase) at 37 °C and 200 RPM. The OD620 values were measured using a spectrophotometer. 1 mL of each culture was placed in a 1.7 mL Eppendorf tube, centrifuged at 5,000 g for 5 min and the supernatant was removed from the cell pellets. The supernatants were directly analyzed on an ESI-LC-MS/MS instrument for metabolites and the cell pellets (from 9 h cultures) were further used for RNA extraction in q-PCR experiments.
Injections of 2 µ L were separated on Zorbax Eclipse plus C18 column (2.1 mm x 50
MeOH:5% water with 0.1% formic acid). The metabolites were separated using an isocratic elution of 100% for 0-3 min, then a 3-17 min linear gradient to 100% B, and 17-20 min of 100% B at a constant flow rate of 0.4 ml/min. Samples were measured in positive ion mode and data was collected in triplicate. Data were analyzed using the Agilent MassHunter Quantitative Analysis suite. From the extracted ion chromatograms (EICs) of the respective metabolite signals, the peak areas were normalized to the OD620 growth values of the respective cultures. All of the peak areas of the treated samples were plotted by considering the DMSO-control sample to be 100% abundance.

P. aeruginosa PA14 [6] = experiment: RT-qPCR of virulence and TCS genes in PA14; assay type: cell-based, Pseudomonas aeruginosa; settings: PA14, 9 h, 200 and 500 μM
Description: RNA isolation, Reverse Transcriptase -qPCR experiments
as §4
The overnight culture was diluted 1:100 in fresh LB media. Four mL of this culture was then taken in a 15 mL borosilicate glass tube, to which Rilu-inhibitors in DMSO were added to a final concentration of 200 µM or 500 µM (for the control experiments, same amount of DMSO was added). These cultures were then grown for 9 h (late exponential phase) at 37 °C and 200 RPM, OD620 ~0.7. Total RNA was extracted from ~2 mL cell pellet using an RNAEasy Mini kit (Qiagen), according to the manufacturer’s instructions, including exogenous DNase treatment with Ambion Turbo-DNAse Kits. RNA integrity was confirmed by native gel electrophoresis and the quantities were measured using a nanophotometer. cDNA was generated using the DNA-free total RNA using (Applied Biosystems High Capacity cDNA Reverse Transcription Kits) random-primed reverse transcriptase reaction following the manufacturer’s protocol. The cDNA was used as template for quantitative PCR (BioRad MyiQ2 dual-color system) using the SYBR Green detection system (BioRad) on white 96-well PCR plates. Melt curves were obtained for every run, and any wells with multiple peaks were excluded from analysis. Signal was standardized to 2 housekeeping genes, recA, rpoD using the ∆∆C method equation:8 Relative […]
expression = 2(CT standard −C T sample), where CT (cycle time) was determined automatically by the Real Time iQ5 PCR software (BioRad). Primers (Integrated DNA Technologies) for RT-qPCR were designed using NCBI Primer-Blast software. Criteria for primer design were a […]
; primer size = 18 –22 bp; product size = 80–130 bp; product Tm
= 60– 90 °C. Samples were assayed in triplicate and statistical analyses was done with one-way ANOVA (Origin 9.1 software).
Table S5. List of primer pairs used in qPCR
Target gene Forward Reverse […]

HK853 [7] = molecular target: T1, HK853; experiment: Inhibition of HK853 activity (BODIPY-ATPγS competition, HK autophosphorylation); assay type: biochemical; settings: for IC50 values for HK853 inhibitory activity: Fig. 1b and text, HK autophosphorylation; for IC50 values (µM) (95% confidence interval), n = 2: Table S1, HK853 inhibition
Description: Inhibition of HK853 Activity
Triton X-100 was premixed with reaction buffer to yield 0.1% (v/v) in final
25-µL reactions. In reaction buffer, 1 µM HK853 was preincubated with test compounds (final
1 µL BODIPY -ATPγS was added to bring
competitors and 5% DMSO. Samples were mixed and incubated in the dark at RT for 1 h before
quenching with 8.6 µL 4× SDS-PAGE sample loading buffer and loading 15 µL on a 10%
stacking gel. After SDS-PAGE, in-gel fluorescence detection elucidated HK853 activity, and
coomassie staining of the gels ensured even protein loading. Integrated density values of the
fluorescent gel bands were normalized as “% Activity” with respect to a control that contained
no inhibitor. Data were plotted in GraphPad Prism with relation to the log of molar inhibitor to
(control FP competition and activity assays), data were fit to a four-parameter logistic equation,
where y is the response, Bottom and Top are plateaus in the units of the y-axis, x is the log of the
molar concentration of inhibitor, HillSlope is the slope of the curve, and IC50 is the concentration
As a result, IC50 values were estimated by constraining the bottom of the curve to

P. aeruginosa PA14 [8] = experiment: Rapid attachment assay; assay type: cell-based, Pseudomonas aeruginosa; settings: PA14, 60 min adhesion, relative to DMSO control
Description: as §4
The overnight cultures were washed and diluted in LB medium to an OD620 value of 1.0. 100 µL of this suspension was used to inoculate each well of a microtiter plate in presence of Rilu-inhibitors in DMSO at 200 µM or 500 µM (for the control experiments, same amount of DMSO was added). Eight wells per plate were used for each sample. Cells were allowed to adhere for 60 min at 37 °C and 200 RPM. After the planktonic cells were removed, staining with crystal violet was carried out, as described in the biofilm assay procedure. Assays were repeated in triplicate.

P. aeruginosa PA14 [9] = experiment: Quantification of rhamnolipids in swarm-plates (Nile red, ImageJ); assay type: cell-based, Pseudomonas aeruginosa; settings: 200 μM, Nile red fluorescence, quantified with ImageJ
Description: as §1, §2
(for the control experiments, same amount of DMSO was added). Plates were allowed to dry for 60 min, with the first 20 min under UV light to ensure plates were sterile following pH adjustment. […] The plates were intermittently taken out for fluorescence scanning [scan settings: GE Typhoon Variable Mode Imager 9500, using 532-nm laser with DY-520XL (λex: 520 nm, λem: 664 nm)]. The scans were visualized and integrated density measurements of whole-plate fluorescence was measured using ImageJ software. […]
as §3

T1 sequence (Q9WZV7 entry or part of it): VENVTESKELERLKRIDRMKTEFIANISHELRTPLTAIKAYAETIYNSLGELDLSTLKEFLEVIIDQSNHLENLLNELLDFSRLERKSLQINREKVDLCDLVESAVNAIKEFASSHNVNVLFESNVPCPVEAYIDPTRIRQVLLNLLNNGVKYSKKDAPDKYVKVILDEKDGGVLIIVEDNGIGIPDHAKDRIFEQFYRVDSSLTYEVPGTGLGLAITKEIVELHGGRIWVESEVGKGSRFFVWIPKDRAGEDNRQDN

| Structure (SMILES) | Swarming motility (P. aeruginosa PA14 [2]) | Compound-induced HK853 aggregation (HK853 [1]) | Bacteriostatic and bactericidal properties in PA14 cultures (P. aeruginosa PA14 [3]) | t = 9 h, OD620 (P. aeruginosa PA14 [3]) | t = 24 h, OD620 (P. aeruginosa PA14 [3]) | Effect on expression of virulence-associated genes (pqsR, fleQ and pilA) (P. aeruginosa PA14 [6]) | also measured |
| --- | --- | --- | --- | --- | --- | --- | --- |
| CCCCCCCCCCCCCCCCn1cc[n+](Cc2ccccc2)c1C.[I-] [NH-125, reference compound] |  |  |  |  |  |  | Concentration causing disappearance of the protein dimer band (protein aggregation) (HK853 [1]; native-PAGE of HK853, positive aggregation control): ≥ 10 µM |
| Nc1nc2ccc(OC(F)(F)F)cc2s1 [Rilu-1, riluzole, reference compound] | moderate difference in swarming | non-aggregators | None of these compounds substantially slowed growth or killed the organism |  |  |  |  |
| Nc1nc2ccc(Oc3ccc4nc(N)sc4c3)cc2s1 [Rilu-2] |  | non-aggregators | None of these compounds substantially slowed growth or killed the organism | 0.851 | 1.60 |  | Reduction of biofilm mass (P. aeruginosa PA14 [4]): 25%; Cytotoxicity to Vero cells (Vero cells): not cytotoxic; Reduction of PCN (P. aeruginosa PA14 [5]): ~85%; Reduction of PYO (P. aeruginosa PA14 [5]): 70% |
| Nc1nc2ccc([N+](=O)[O-])cc2s1 [Rilu-4] | moderate difference in swarming | non-aggregators | None of these compounds substantially slowed growth or killed the organism | 0.842 | 1.65 | substantially downregulated |  |
| Cc1nc2ccc(N)cc2s1 [Rilu-7] |  |  |  |  |  | does not significantly affect |  |
| Nc1nc2c(Cl)cc(Cl)cc2s1 [Rilu-10] |  |  |  |  |  |  | IC50 values for HK853 inhibitory activity (HK853 [7]): No inhibition; also recorded: inactive; IC50 values (µM) (95% confidence interval), n = 2 (HK853 [7]): No Inhibition |
| Nc1nc2cc(Br)c(Br)cc2s1 [Rilu-11] |  |  |  |  |  |  | IC50 values for HK853 inhibitory activity (HK853 [7]): No inhibition; also recorded: inactive; IC50 values (µM) (95% confidence interval), n = 2 (HK853 [7]): No Inhibition |
| Nc1nc2cc3sc(N)nc3cc2s1 [Rilu-12] | major impairment in motility | non-aggregators | None of these compounds substantially slowed growth or killed the organism | 0.883 | 1.65 | substantially downregulated | Swarming motility, tendril formation (P. aeruginosa PA14 [2]; after 40 h): most prominently; Reduction in surface attachment (P. aeruginosa PA14 [8]): 70%; Reduction of RL production on swarm agar plates (P. aeruginosa PA14 [9]): 70%; Amount of PCA produced (P. aeruginosa PA14 [5]): ~8% |
